# “Also recorded” adds a separate entry of the source.
# What was measured:
# ADAR2 = target: T1, ADAR2 (Homo sapiens, UniProt P78563); test: Binding to ADAR2 (not shown)
# T1 sequence (P78563 1-741): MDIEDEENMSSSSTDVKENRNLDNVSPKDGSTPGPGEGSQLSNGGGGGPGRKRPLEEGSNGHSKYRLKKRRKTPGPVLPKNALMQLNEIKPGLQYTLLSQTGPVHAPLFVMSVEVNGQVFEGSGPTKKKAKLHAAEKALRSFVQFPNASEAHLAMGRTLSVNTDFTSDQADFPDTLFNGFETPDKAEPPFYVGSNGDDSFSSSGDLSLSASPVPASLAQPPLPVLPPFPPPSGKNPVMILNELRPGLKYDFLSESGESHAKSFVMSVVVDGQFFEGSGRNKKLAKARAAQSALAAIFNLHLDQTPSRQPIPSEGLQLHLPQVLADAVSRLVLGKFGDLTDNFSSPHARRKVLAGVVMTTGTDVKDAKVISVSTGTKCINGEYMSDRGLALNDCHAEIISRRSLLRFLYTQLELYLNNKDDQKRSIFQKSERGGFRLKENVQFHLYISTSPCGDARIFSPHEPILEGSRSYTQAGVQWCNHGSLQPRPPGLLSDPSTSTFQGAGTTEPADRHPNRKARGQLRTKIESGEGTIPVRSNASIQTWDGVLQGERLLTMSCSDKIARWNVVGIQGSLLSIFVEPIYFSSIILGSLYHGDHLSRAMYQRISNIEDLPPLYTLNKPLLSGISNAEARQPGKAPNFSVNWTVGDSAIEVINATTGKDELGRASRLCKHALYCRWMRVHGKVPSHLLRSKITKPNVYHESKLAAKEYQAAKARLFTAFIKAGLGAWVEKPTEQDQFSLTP
# ADAR1p110-E912A = ADAR1p110-E912A (Homo sapiens, UniProt P55265, E912A); test: Biacore SPR binding to ADAR1p110-E912A mutant
# From the text: (§1) FIGS. 5A-5D show Biacore SPR analysis for binding of ADAR1i to ADAR1p110. (FIG. 5A) SPR analysis for binding kinetics of 8 compounds to ADAR1p110-WT. ADAR1 inhibition positive (ADAR1i-13, ADAR1i-120, ADAR1i-124) and negative compounds. (FIG. 5B, FIG. 5C) […] of SPR analysis for binding of ADAR1i-13 and ADAR1i-124 to ADAR1p110-WT and ADAR1p110-E912A as well as negative control proteins, GAPDH and HuR, are shown. […] ADAR1-E912, equivalent of ADAR2 E396, is located in the catalytic center.
# (§2) No complete 3-D structure of ADAR1 is currently available. […] The glutamate E912 and E396 in ADAR1 and ADAR2, respectively, plays an important proton transfer function during hydrolytic deamination reaction (42, 43).
# HuR = HuR (Homo sapiens, UniProt Q15717); test: SPR binding to negative control protein HuR
# From the text: as §1
# [1] = tested on: IMR90 normal fibroblast cells; test: Cell killing / viability, IMR90; type: cell-based
# Experimental: (§3) FIGS. 8A-8C show analysis of ADAR1i-124 effects in cancer cells. […] Viability was examined using the Apo Tox-Glo assay system. Control, 0.3% DMSO. Data: mean±SD (n=3). Significant differences identified by two-tailed Student's t-tests: *P<0.05, n.s., not significant. (FIG. 8B) Western blotting analysis of HeLa cells treated with ADAR1i-124 (10 μM).
# (§4) FIGS. 9A-9C show dose-dependent killing of cancer cells and activation of IFN signaling. […] YUMM1.7 (FIG. 9B) and HGS2 cells (FIG. 9C) were treated with ADAR1i-124 at 10 μM (12 hrs). RNA samples were analyzed by qRT-PCR to monitor ISG expression levels. Data: mean±SD (n=3). Significant differences were identified by two-tailed Student's t-tests: ***P<0.001.
# (§5) Dose-dependent selective killing of telomerase reactivated cancer cells was determined (FIG. 9A).
# ADAR1p110-WT = target: T2, ADAR1p110-WT (Homo sapiens, UniProt P55265); test: Biacore SPR binding to ADAR1p110-WT
# T2 construct: made in house; host or cells: Sf9 cells (baculovirus)
# T2 sequence (P55265 1-931 isoform P55265-5): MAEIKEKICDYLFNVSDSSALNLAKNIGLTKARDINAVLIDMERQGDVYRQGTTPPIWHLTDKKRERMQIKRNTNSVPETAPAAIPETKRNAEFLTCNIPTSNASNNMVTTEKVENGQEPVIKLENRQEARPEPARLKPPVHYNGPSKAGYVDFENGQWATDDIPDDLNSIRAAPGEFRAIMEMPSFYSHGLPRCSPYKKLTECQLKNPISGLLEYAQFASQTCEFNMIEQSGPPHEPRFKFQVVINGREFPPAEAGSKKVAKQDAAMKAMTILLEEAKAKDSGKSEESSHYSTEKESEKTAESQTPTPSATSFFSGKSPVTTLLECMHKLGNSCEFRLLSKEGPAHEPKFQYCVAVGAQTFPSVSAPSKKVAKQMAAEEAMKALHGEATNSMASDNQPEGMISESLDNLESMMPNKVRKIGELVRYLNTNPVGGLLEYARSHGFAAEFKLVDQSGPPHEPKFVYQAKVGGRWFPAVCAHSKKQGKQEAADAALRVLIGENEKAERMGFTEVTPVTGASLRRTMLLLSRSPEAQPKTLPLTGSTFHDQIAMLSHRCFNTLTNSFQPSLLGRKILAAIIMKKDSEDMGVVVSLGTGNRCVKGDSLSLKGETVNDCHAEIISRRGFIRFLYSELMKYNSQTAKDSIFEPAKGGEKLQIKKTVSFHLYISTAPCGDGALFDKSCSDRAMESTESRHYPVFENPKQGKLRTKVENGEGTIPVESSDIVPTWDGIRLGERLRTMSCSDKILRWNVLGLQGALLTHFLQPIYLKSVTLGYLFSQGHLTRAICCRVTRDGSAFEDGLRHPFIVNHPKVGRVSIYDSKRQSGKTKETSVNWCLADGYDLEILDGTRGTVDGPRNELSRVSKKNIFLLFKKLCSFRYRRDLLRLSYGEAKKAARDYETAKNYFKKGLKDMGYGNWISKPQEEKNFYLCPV
# From the text: as §1, §2
# GAPDH = GAPDH (Homo sapiens, UniProt P04406); test: SPR binding to negative control protein GAPDH
# From the text: as §1
# HeLa cells [2] = test: Dot blot analysis for RNA:DNA hybrids (R-loops); type: cell-based, human; settings: 10 μM for ADAR1i-124
# HeLa cells [3] = test: Western blotting of treated HeLa cells (DNA damage, M phase arrest, apoptosis); type: cell-based, human; settings: 10 μM for ADAR1i-124
# Experimental: as §3, §5
# [4] = tested on: human and mouse melanoma (telomerase reactivated) cell lines; test: Suppression of melanoma cell lines, comparison of inhibitors (not shown); type: cell-based
# Experimental: as §5
# YUMM1.7 = test: Dose-dependent killing, YUMM1.7; type: cell-based; settings: mouse non-ALT cancer cells
# Experimental: as §4
# Chain of ADAR1p110-E912A (P55265 296-1226 E912A): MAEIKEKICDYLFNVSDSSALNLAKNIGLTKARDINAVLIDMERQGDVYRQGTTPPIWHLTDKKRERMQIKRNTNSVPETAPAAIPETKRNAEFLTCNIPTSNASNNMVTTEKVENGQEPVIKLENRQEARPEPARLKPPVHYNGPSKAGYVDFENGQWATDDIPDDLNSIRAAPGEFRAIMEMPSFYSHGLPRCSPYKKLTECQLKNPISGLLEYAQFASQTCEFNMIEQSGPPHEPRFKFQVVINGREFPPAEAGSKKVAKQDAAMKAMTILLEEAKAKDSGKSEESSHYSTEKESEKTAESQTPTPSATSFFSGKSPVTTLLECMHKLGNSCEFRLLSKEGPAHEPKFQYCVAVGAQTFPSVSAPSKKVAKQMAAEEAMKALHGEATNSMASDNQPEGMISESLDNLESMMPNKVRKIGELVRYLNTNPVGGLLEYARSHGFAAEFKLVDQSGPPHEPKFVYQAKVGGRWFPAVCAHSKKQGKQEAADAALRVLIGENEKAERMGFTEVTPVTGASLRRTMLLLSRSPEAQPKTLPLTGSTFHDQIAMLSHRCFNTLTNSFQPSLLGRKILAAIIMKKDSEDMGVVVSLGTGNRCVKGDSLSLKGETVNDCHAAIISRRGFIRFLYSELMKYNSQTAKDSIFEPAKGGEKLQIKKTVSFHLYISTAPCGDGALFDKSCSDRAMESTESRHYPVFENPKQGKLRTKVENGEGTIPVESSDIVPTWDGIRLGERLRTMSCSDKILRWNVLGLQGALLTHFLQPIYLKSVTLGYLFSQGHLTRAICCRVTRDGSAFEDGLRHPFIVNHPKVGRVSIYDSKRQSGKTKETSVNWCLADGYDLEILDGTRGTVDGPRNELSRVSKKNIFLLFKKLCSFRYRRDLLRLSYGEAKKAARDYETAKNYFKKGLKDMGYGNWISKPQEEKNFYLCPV
# Chain of GAPDH (P04406 whole entry, species assumed): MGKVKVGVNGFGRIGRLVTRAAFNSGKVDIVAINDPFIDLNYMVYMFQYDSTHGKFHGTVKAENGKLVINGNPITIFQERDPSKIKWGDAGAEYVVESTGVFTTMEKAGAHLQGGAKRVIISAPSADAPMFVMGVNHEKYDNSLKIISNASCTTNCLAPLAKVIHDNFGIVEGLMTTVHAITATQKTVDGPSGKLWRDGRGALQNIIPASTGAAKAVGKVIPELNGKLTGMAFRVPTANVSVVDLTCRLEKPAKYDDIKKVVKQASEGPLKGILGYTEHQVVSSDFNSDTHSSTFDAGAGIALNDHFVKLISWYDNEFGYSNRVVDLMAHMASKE
# Chain of HuR (Q15717 whole entry, species assumed): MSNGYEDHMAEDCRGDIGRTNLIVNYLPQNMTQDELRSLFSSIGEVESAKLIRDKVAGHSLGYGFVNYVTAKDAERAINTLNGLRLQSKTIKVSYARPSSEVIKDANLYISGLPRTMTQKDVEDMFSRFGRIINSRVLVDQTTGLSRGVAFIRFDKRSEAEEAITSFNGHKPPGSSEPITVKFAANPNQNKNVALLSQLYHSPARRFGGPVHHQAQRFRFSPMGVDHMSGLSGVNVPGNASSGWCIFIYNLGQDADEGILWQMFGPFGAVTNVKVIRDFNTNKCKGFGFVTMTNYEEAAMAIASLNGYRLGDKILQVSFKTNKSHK
Structure (SMILES),Binding to ADAR2 (ADAR2),Binding to ADAR1p110-E912A mutant (ADAR1p110-E912A),Binding to HuR (HuR),Killing of IMR90 cells [1],Binding to ADAR1p110-WT (ADAR1p110-WT),Binding to GAPDH (GAPDH),Formation of R-loops (RNA:DNA hybrids) (HeLa cells [2]),"DNA damage, M phase arrest and apoptosis markers (HeLa cells [3])",Suppression of human and mouse melanoma cell lines relative to other inhibitors [4],Killing of YUMM1.7 cells (YUMM1.7)
"N#Cc1ccc(NC(=O)c2sc3ccccc3c2Cl)cc1 [ADAR1i-13, 3-chloro-N-(4-cyanophenyl)-1-benzothiophene-2-carboxamide]",bound also to ADAR2,did not bind,did not bind,not ALT U2OS cells or IMR90 normal fibroblast cells,direct binding,did not bind,increased formation of R-loops,"induced DNA damage, M phase arrest, and apoptosis",,
N#Cc1ccccc1NC(=O)c1sc2ccccc2c1Cl [ADAR1i-120],,,,not ALT U2OS cells or IMR90 normal fibroblast cells,direct binding,,increased formation of R-loops,"induced DNA damage, M phase arrest, and apoptosis",,
N#Cc1ccc(NC(=O)c2c(Cl)c3ccccc3n2CO)cc1 [ADAR1i-124],bound also to ADAR2,a binding kinetics different from that with ADAR1p110-WT,did not bind,not ALT U2OS cells or IMR90 normal fibroblast cells; also recorded: unaffected,direct binding,did not bind,increased formation of R-loops; also recorded: RNA:DNA hybrids induced,"induced DNA damage, M phase arrest, and apoptosis; also recorded: upregulated g-H2AX, Histone 3 phosphorylated at Serine 10, and cleaved PARP bands",more efficiently than ADAR1i-13 and ADAR1i-120,dose-dependently killed

# Source: patent publication US20260272878A1, “ADAR1 INHIBITORS AND USES THEREOF” (THE WISTAR INSTITUTE OF ANATOMY AND BIOLOGY, priority 2023, published 2026)
